Key:
FOXL2 protein = assay: Experiment for protein stability (cyclohexamide chase, western blotting); format: cell-based, human; conditions: FOXL2-overexpressing cells, then 10 μg cyclohexamide, sampled at 0, 6, 12, 24 hours
Description: The cultured cells were harvested, and a protein was extracted from the cells using a Nonidet P-40 (NP-40) solution. For quantification of the extracted protein, a Bicinchoninic acid (BCA)™ protein assay was performed. The quantified protein was transferred to a polyvinylidene fluoride (PVDF) membrane by SDS-PAGE electrophoresis, and incubated with an antibody for each protein to be detected. Afterward, the proteins were detected using secondary antibodies and a ChemDoc system. To confirm whether the effect of decreasing the cell viability by inducing the activity of a specific promoter such as TNFR1, FAS, Caspase8 and p21 induces regulation of FOXL2 protein stability by the phosphorylation of the FOXL2 S33 residue, cells in which a FOXL2 protein was overexpressed were treated with a GSK3beta inhibitor (SB 216763) and expressed, treated with 10 μg of cyclohexamide which is a protein synthesis inhibitor, and then sampled at 0, 6, 12, and 24 hours to perform western blotting, and the result is shown in FIG. 12.

[1] = tested on: phosphorylation of the FOXL2 S33 residue; assay: Western blotting of the phosphorylation of the FOXL2 S33 residue after kinase inhibitor treatment; format: cell-based, human; conditions: 10 μM inhibitor, KGN cells overexpressing FOXL2 WT
Description: The cultured cells were harvested, and a protein was extracted from the cells using a Nonidet P-40 (NP-40) solution. For quantification of the extracted protein, a Bicinchoninic acid (BCA)™ protein assay was performed. The quantified protein was transferred to a polyvinylidene fluoride (PVDF) membrane by SDS-PAGE electrophoresis, and incubated with an antibody for each protein to be detected. Afterward, the proteins were detected using secondary antibodies and a ChemDoc system.
While the FOXL2 WT was overexpressed in the KGN cells, the cells were treated with 10 μM of the inhibitor of each kinase, cultured for 18 hours and sampled, and then a change in phosphorylation was measured by performing western blotting. Here, the change in phosphorylation was measured using an antibody specifically binding to a peptide consisting of an amino acid of SEQ. ID.
To confirm whether an inhibitory effect of GSK3beta on the FOXL2 S33 residue is a GSK3beta-specific effect, cells in which FOXL2 WT was overexpressed were treated with 10 μM each of AR-A014418 and TWS1119, which are two different GSK3beta inhibitors, sampled, and analyzed by western blotting. Here, AR-A014418 contains a compound represented by Formula 2.

[2] = tested on: KGN cells stably expressing FOXL2; assay: Efficacy on tumor induced by KGN cells in nude mice; format: in vivo, BALB/c-nu mice; conditions: 2 mg/kg injected directly into tumor-induced region 10 times for two weeks, starting three weeks after cell injection
Excerpt: 6-week-old mature male BALB/c-nu mice were purchased from Central Laboratory Animal, Inc., and allowed for one week to be adapted to environments of the breeding facility and the laboratory in the Chung-Ang University Laboratory Animal Research Center to ensure that the mice had no general symptoms, prior to being used for the experiment. The animals were housed at a density of five mice per polycarbonate cage, and solid food for laboratory animals and water were freely provided. The environments for the breeding laboratory including a temperature, humidity, a ventilation cycle, a light/dark cycle, and illuminance were constantly maintained, and all the experiments were conducted in accordance with the regulation of the Chung-Ang University Animal Research Ethics Committee.
3×10^7 of KGN cells stably expressing FOXL2 were subcutaneously injected into each mouse to induce a tumor. Three weeks after the injection, the GSK3beta inhibitor (AR-A014418) was directly injected into a tumor-induced region at 2 mg/kg 10 times for two weeks and then a tumor size was measured, and the result is shown in FIG. 14.

[3] = tested on: cells in which the FOXL2 protein was overexpressed; assay: Experiment for cell growth rate; format: cell-based, human; conditions: for cell growth rate of the C134W mutant: cells overexpressing FOXL2 C134W mutant
Description: After the cells in which the FOXL2 protein was overexpressed were treated with a GSK3beta inhibitor (AR-A014418), a cell growth rate according to time was measured, and the result is shown in FIG. 13.

Structure (SMILES)	FOXL2 protein stability (FOXL2 protein)	phosphorylation of the FOXL2 S33 residue [1]	phosphorylation of the FOXL2 S33 residue ([1]; listed as Formula 1)	size of the tumor induced in the ovarian GCT cells [2]	cell growth rate of the C134W mutant [3]	phosphorylation of the FOXL2 S33 residue ([1]; listed as Formula 2)	size of the tumor induced in the ovarian GCT cells ([2]; listed as Formula 2)	cell growth rate ([3]; FOXL2-overexpressing cells, growth rate according to time)	cell growth rate of the C134W mutant ([3]; listed as Formula 2)
Cn1cc(C2=C(c3ccc(Cl)cc3Cl)C(=O)NC2=O)c2ccccc21 [SB 216763, 3-(2,4-Dichlorophenyl)-4-(1-methyl-1H-indol-3-yl)-1H-pyrrole-2,5-dione]	increased	reduced	decreased	decreased	decreased	–	–	–	–
Nc1cccc(-c2cc3c(Oc4cccc(O)c4)ncnc3[nH]2)c1 [TWS1119]	–	reduced	–	–	–	–	–	–	–
COc1ccc(CNC(=O)Nc2ncc([N+](=O)[O-])s2)cc1 [AR-A014418, N-[(4-Methoxyphenyl)Methyl]-N′-(5-nitro-thiazol-2-yl)urea]	–	reduced	–	remarkably decreased	remarkably decreased	decreased	decreased	decrease	decreased

From patent US20160058738A1, “PHARMACEUTICAL COMPOSITION FOR PREVENTING OR TREATING OVARY GRANULOSA CELL TUMORS CONTAINING GLYCOGEN SYNTHASE KINASE-3 BETA INHIBITOR AS ACTIVE INGREDIENT, AND FUNCTIONAL HEALTH FOOD COMPOSITION” (CHUNG-ANG UNIVERSITY INDUSTRY-ACADEMIC COOPERATION …, priority 2013, published 2016)
